The test system of one data set is SIV virus. As to the kind of experiment: Test C (XTT), MT4 cells infected with SIV. The class given is cell-based. The following applies: Simian immunodeficiency virus, MT4, Test C. An outline of the steps: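 MT4 cells in RPMI 1640 with 5% FCS and penicillin/streptomycin were plated at 2x10^4 cells/well in 96-well microplates, exposed to test compound diluted from DMSO stock, and infected with SIV virus. After six days' incubation in CO2, XTT was added for six hours, OD read at 450 nm (reference 650 nm), and percent reduction of virus-induced cytotoxicity calculated versus infected and uninfected controls.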
A general note: Tetrazolium assays rely on reduction of a dye to a coloured formazan, in cell work by metabolically active cells.

Data set [1] relates to HIV-1. Kind of data set: Test E (HIV-1 RT), RT activity in supernatant of infected MT-4/H9 cells. It counts as cell-based. The following applies: Human immunodeficiency virus 1, H9, Test E. How it is done:
(§1) Tests E, F, G, H (HIV-IRT, HIV-2RT, SIVRT, no virus)
(§2) MT-4/H9-cells are adjusted to 2x10^5 cells/ml medium (RPMI 1640, 5% FCS, penicillin/streptomycin) and seeded into microplates (96 wells/plate) […] cell suspension/well giving 2 x 10^4 cells/well. The compound to be tested is made 10 mg/ml in DMSO = stock solution (stored at -20°C). The compound dissolved in DMSO is diluted 25 times in medium to give 400 mg/ml. Further dilutions to 40 mg/ml and 4 mg/ml are made in microplates.
(§3) 50 µl of the dilutions 400 mg/ml, 40 mg/ml and 4mg/ml are transferred to the "cell-containing" microplate with a multichannel pipette. […]
(§4) Finally 50 µl of virus suspension is added to each well (with a repetitive "Eppendorf multipett"). [Test E-HIV-1; Test F-HIV-2; Test G-SIV; Test H-no virus].
(§5) Each plate has at least four wells with virus but no drug (virus control) and two wells without virus (medium control). The plate is put into a plastic bag to avoid evaporation and incubated for six days in CO2-atmosphere. 10 µl supernatant from each well is transferred with a multichannel pipette into a new microplate to which 40 ml VDB, (50 mM Tris-HCl pH = 7.6, 35 mM KCl, 4 mM DTT, 1 mM EDTA, 1.3% Triton X-100), have been added to each well. The addition of 50 ml RT-reaction mix, (10 ml culture supernatant, 40 ml VDB and 50 ml reaction mixture giving a final concentration of: 100 mM Tris-HCl pH = 7.6, 100 mM KCl, 4 mM MgCl2, 4 mM DTT, 275 mg/ml BSA/ml, 5 mg (rA)n(dT)12-18/ml and 0.3 mM ^3H dTTP (specific activity 18.000 cpm/pmol)) gives a final volume of […]/well. After 60 minutes of incubation the whole assay volume is transferred by use of a cell harvester to a filter mat prewetted with 5% TCA. The filter is washed in 5% TCA and rinsed once in ethanol. After drying the filter mat at 60°C for 30 min. each filter (96/mat) is punched out and put into counting vials 2 ml of scintillation fluid is added and the samples are counted (1 min) or the whole filter mat is put into a plastic bag, 10 ml of scintillation fluid is added and the filter mat is counted in a Beckman Betaplate counter. Percent reduction of RT activity is determined by comparing RT activity for virus control with the RT activity measured for each dilution of the compound.

Another data set relates to HIV virus. As to the kind of experiment: Test A (XTT), MT4 cells infected with HIV. The following applies: for inhibition at 1 µg/mL / inhibition at 10 µg/mL / inhibition at 100 µg/mL: Human immunodeficiency virus 1, MT4, Test A; for % inhibition: Test A. It counts as cell-based. An outline of the steps: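 MT4 cells in RPMI 1640 with 5% FCS and penicillin/streptomycin were plated in 96-well microplates at 2x10^4 cells/well, given compound diluted from a DMSO stock, then infected with HIV virus suspension. After six days' incubation in CO2, XTT was added for six hours, absorbance read at 450 nm (reference 650 nm), and percent reduction of virus-induced cytotoxicity calculated against infected and uninfected controls.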

A further data set has as its system HIV-2. As to the kind of experiment: Test F (HIV-2 RT), RT activity in supernatant of infected MT-4/H9 cells. It counts as cell-based. The following applies: Human immunodeficiency virus 2, H9, Test F. How it is done:
as §1, §2, §3, §4, §5

Another data set has as its system HIV(II) virus. As to the kind of experiment: Test B (XTT), MT4 cells infected with HIV(II). It counts as cell-based. The conditions noted are these: Human immunodeficiency virus 1, MT4, Test B. As for the experimental part:
Tests A, B, C, and D (XTT)
MT4 cells in a medium of RPMI 1640, 5% FCS, penicillin/streptomycin are adjusted to 2x10^5 cells/ml and seeded into microplates (96 wells/plate) 100 µl cell suspension/well giving 2x10^4 cells/well. The compound to be tested is made into a 10 mg/ml mixture in DMSO and stored at -20°C. The compound in DMSO is diluted with medium containing 10% DMSO in a 10-fold dilution series to give 1 mg/ml, 10 mg/ml, and […] solutions. Further dilutions to 400, 40, 4 and 0.4 mg/ml are made in medium containing microplates. Fifty µl of the 400, 40, and 4 mg/ml are transferred to the cell-containing microplates with a multi-channel pipette (final concentration: 100, 10, and 1 mg/ml). Finally, 50 µl of virus suspension is added to each well (with a repetitive "Eppendorf" multipipett). Each plate has at least six wells with the following: [Test A: HIV virus; Test B: HIV(II) virus; Test C: SIV virus; Test D: No virus]; with no drug (virus control) and six wells without virus (medium control). The plate is put into a plastic bag and incubated for six days in CO2 atmosphere. To each well in the plate is added 50 µl of XTT ((2,3-bis[2-methoxy-4-nitro-5-sulfophenyl]-5-[(phenylamino)carbonyl]-2H-tetrazolium hydroxide), (1 mg/ml 0.01-0.02 mM N-metyl-phenazonium methosulfate). After six hours of incubation in CO2 atmosphere the plates are covered with adhesive plate sealers and gently mixed on a vortex. Optical densities are determined at a wavelength of 450 nm and a reference wavelength of 650 nm. The percent reduction of cytotoxocity caused by the virus infection is calculated as follows: (OD450 compound - OD450 inf cells)/(OD450 uninf cells - OD450 inf cells)x 100 [formula]

A further data set concerns the target recombinant HIV-RT (Human immunodeficiency virus type 1 group M subtype B, UniProt P04585). As to the kind of experiment: Test I (HIVRT (rAdt)), direct inhibition of recombinant HIV-RT. The class given is biochemical. In short, it runs like this: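 Recombinant HIV-RT was incubated 60 min in Tris-HCl pH 7.6 with 100 mM KCl, 4 mM MgCl2 and 4 mM DTT, using (rA)n(dT)12-18 template and 0.3 mM ³H-dTTP. Product was spotted in duplicate on paper discs, TCA-washed and counted by scintillation.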

The test system of a further data set is SIV. As to the kind of experiment: Test G (SIV RT), RT activity in supernatant of infected MT-4/H9 cells. The class given is cell-based. The following applies: Simian immunodeficiency virus. How it is done:
as §1, §2
50 µl of the dilutions 400 mg/ml, 40 mg/ml and 4mg/ml are transferred to the "cell-containing" microplate with a multichannel pipette. (Final concentration: 100, 10 and 1 mg/ml).
as §4, §5

For data set [2], the system named is HIV-1. Kind of data set: combination with AZT against HIV-1 in CEM cells, technique of Prichard and Shipman. The class given is cell-based. The following applies: combination of AZT and the compound. How it is done: The combination was evaluated against HIV-1 in CEM cells using the technique of Prichard and Shipman (Antiviral Research, 14, 181-206 (1990)).

Data set [3] is described as follows: titration pKa (66% DMF/H2O).
A further data set is described as follows: physchem. The following applies: 66% dmf/h2o.

Each structure is given as a SMILES string.

The term inhibition denotes the relative decrease from the control value, in per cent. By % inhibition is commonly meant the share of the control response that was lost under treatment. A high value points to strong suppression. For orientation: pKa means the pH at which an ionisable group is half protonated. Read a high pKa as a group that holds its proton tightly.

Consider `S=C(NCCc1ccccc1)Nc1nc2c(Cl)cccc2s1`, for which the inhibition at 1 µg/mL in the data set on SIV virus was 0%; in the data set with HIV-1 [1], 11%; with HIV virus, 4%; in the data set on HIV-2, 6%; in the data set with HIV(II) virus it was 22%; at recombinant HIV-RT, 6%. In the data set on SIV, this compound registered an inhibition at 1 µg/mL of 1%. In addition, the inhibition at 10 µg/mL in the data set on SIV virus is 2%; in the data set with HIV-1 [1], 8%; in the data set on HIV virus (10 µg/ml), 19%; in the data set on HIV-2 it was 72%; with HIV(II) virus, 100%; on recombinant HIV-RT, 1%. In the data set on SIV, this compound yielded an inhibition at 10 µg/mL of 1%. For the same compound, the inhibition at 100 µg/mL was 17% in the data set with SIV virus; 97% in the data set with HIV-1 [1]; 100% with HIV virus (100 µg/ml); 93% in the data set with HIV-2; 36% in the data set with HIV(II) virus; 87% in the data set on SIV. Also, the inhibition at 0.1 µg/mL came to 1% in the data set on HIV-2 (0.1 µg/ml), 18% in the data set on HIV(II) virus and 9% at recombinant HIV-RT.

As to `S=C(NCCc1ccccc1)Nc1nc2ccc(Cl)cc2s1`, the inhibition at 1 µg/mL in the data set with SIV virus is 0%; in the data set on HIV-1 [1] it was 1%; in the data set on HIV virus it was 0%; in the data set on HIV-2 it was 1%; in the data set with HIV(II) virus, 9%; on recombinant HIV-RT it was 18%. In the data set with SIV, the inhibition at 1 µg/mL is 1%. In addition, the inhibition at 10 µg/mL in the data set on SIV virus worked out at 0%; with HIV-1 [1], 51%; in the data set on HIV virus (10 µg/ml), 63%; in the data set on HIV-2, 79%; in the data set with HIV(II) virus it was 67%; at recombinant HIV-RT, 18%. In the data set on SIV, this compound showed an inhibition at 10 µg/mL of 12%. For the same compound, the inhibition at 100 µg/mL in the data set on SIV virus turned out to be 21%; in the data set on HIV-1 [1], 96%; with HIV virus (100 µg/ml), 68%; in the data set with HIV-2 it was 98%; in the data set on HIV(II) virus, 27%; with SIV it was 90%. The “% inhibition” value came out at 67% in the data set with HIV virus (10 µg/ml) and 49% with HIV virus (100 µg/ml). In addition, the inhibition at 0.1 µg/mL in the data set with HIV(II) virus was found to be 24%; at recombinant HIV-RT it was 12%.

Turning to `Cc1cn([C@H]2C[C@H](N=[N+]=[N-])[C@@H](CO)O2)c(=O)[nH]c1=O` [AZT, reference compound], the “concentration at the peak of synergy” value in the data set with HIV-1 [2] came to 0.005 µg/mL.

The compound `NCCc1c(F)cccc1F` [Example 312, 2-(2,6-Difluorophenyl)ethylamine] displayed a pKa in [3] of 9.06.

For the compound `S=C(NCCC1=CCCCC1)Nc1ccc(Cl)nn1` [Example 336, N-[2-(1-cyclohexenyl)ethyl]-N'-[3-(6-chloro)pyridazinyl]thiourea], the pKa in data set [3] (pKa, 66% DMF) turned out to be 12.8.

Turning to `Fc1cccc(F)c1CCNC(=S)Nc1ccc(Cl)nn1` [Example 337, N-[2-(2,6-difluorophenyl)ethyl]-N'-[3-(6-chloro)pyridazinyl] thiourea], the pKa in data set [3] (pKa, 66% DMF) came out at 12.7. This pKa and that of the compound before are within 0.2 log units of each other.

`NCCc1ncccc1F` [Example 417, 2-aminoethyl-3-fluoropyridine]: the pKa in “physchem” was determined as 9.56.

`S=C(NCCc1ccccc1)Nc1nccs1` [drawing 35]: in the data set with HIV-1 [2], the “concentration at the peak of synergy” value turned out to be 0.5 µg/mL and the “effect of the combination” value was “synergistic effect”.
